From ChEMBL document CHEMBL1201862, “PubChem BioAssay data set” (2004)
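Five concentrations, 48 hours, 96-well plates. GI50 = concentration required for 50% inhibition of growth.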 The source made the active and inactive calls. Rule as the data show it: active = GI50 up to about 1.1 µM and inactive = higher.

Columns and labels:
Assay in all cases: NCI tumour cell line growth inhibition, 48 h
SW-620 = tested on: SW-620
HOP-62 = tested on: HOP-62
CAKI-1 = tested on: CAKI-1
OVCAR-3 = tested on: OVCAR-3
SK-MEL-2 = tested on: SK-MEL-2
UO-31 = tested on: UO-31
SK-MEL-28 = tested on: SK-MEL-28
A498 = tested on: A498
UACC-257 = tested on: UACC-257
U-251 = tested on: U-251
MOLT-4 = tested on: MOLT-4
SF-268 = tested on: SF-268
A549 = tested on: A549
NCI-H23 = tested on: NCI-H23
PC-3 = tested on: PC-3
SN12C = tested on: SN12C
HCT-15 = tested on: HCT-15
IGROV-1 = tested on: IGROV-1
NCI-H226 = tested on: NCI-H226

| Structure (SMILES) | GI50 (SW-620) | GI50 (HOP-62) | GI50 (CAKI-1) | GI50 (OVCAR-3) | GI50 (SK-MEL-2) | GI50 (UO-31) | GI50 (SK-MEL-28) | GI50 (A498) | GI50 (UACC-257) | GI50 (U-251) | GI50 (MOLT-4) | GI50 (SF-268) | GI50 (A549) | GI50 (NCI-H23) | GI50 (PC-3) | GI50 (SN12C) | GI50 (HCT-15) [µM] | GI50 (IGROV-1) | GI50 (NCI-H226) |
| --- | --- | --- | --- | --- | --- | --- | --- | --- | --- | --- | --- | --- | --- | --- | --- | --- | --- | --- | --- |
| CC(Nc1cc(=O)n(C)c(=O)[nH]1)c1ccccc1 (stereo not given) | > 100 µM (inactive) | > 100 µM (inactive) | > 100 µM (inactive) | > 100 µM (inactive) | > 100 µM (inactive) | > 100 µM (inactive) | > 100 µM (inactive) | > 100 µM (inactive) | > 100 µM (inactive) | > 100 µM (inactive) | > 100 µM (inactive) | > 100 µM (inactive) | > 100 µM (inactive) | > 100 µM (inactive) | > 100 µM (inactive) | > 100 µM (inactive) | > 100 | > 100 µM (inactive) |  |
| COc1cc(O)cc2oc(-c3ccc(O)cc3)cc(=O)c12 | 49.3 µM (inactive) | 74.6 µM (inactive) | 64.3 µM (inactive) | > 100 µM (inactive) | 52.8 µM (inactive) | 55 µM (inactive) | > 100 µM (inactive) | 29.6 µM (inactive) | > 100 µM (inactive) | 71.4 µM (inactive) | > 100 µM (inactive) | 67.8 µM (inactive) | > 100 µM (inactive) | > 100 µM (inactive) | > 100 µM (inactive) | > 100 µM (inactive) | > 100 | 47.3 µM (inactive) |  |
| Cc1ccc(S(=O)(=O)c2[nH]cc(/C(=C\C3CCCCC3)[N+](=O)[O-])c2C2CCCCC2)cc1 | 0.376 µM (active) | 1.41 µM (inactive) | 0.22 µM (active) | 0.27 µM (active) | 0.377 µM (active) | 0.493 µM (active) | 0.802 µM (active) |  | 0.393 µM (active) | 0.653 µM (active) | 0.324 µM (active) | 0.414 µM (active) | 1.71 µM (inactive) | 0.542 µM (active) | 0.472 µM (active) | 0.211 µM (active) | 0.199 | 0.314 µM (active) | 0.832 µM (active) |
| CCOC(=O)C1CCCN1C(=O)c1ccccc1Cl (stereo not given) | > 100 µM (inactive) | > 100 µM (inactive) | > 100 µM (inactive) | > 100 µM (inactive) |  | > 100 µM (inactive) | > 100 µM (inactive) | > 100 µM (inactive) | > 100 µM (inactive) | > 100 µM (inactive) | > 100 µM (inactive) | > 100 µM (inactive) | > 100 µM (inactive) | > 100 µM (inactive) |  | > 100 µM (inactive) | > 100 | > 100 µM (inactive) | > 100 µM (inactive) |
| Oc1c2c(c(O)c3ccccc13)C1(N=N2)c2ccccc2Oc2ccccc21 | 3.64 µM (inactive) | 16 µM (inactive) | 10.3 µM (inactive) | 3.01 µM (inactive) | 12 µM (inactive) | 6.68 µM (inactive) | 11.4 µM (inactive) | 19 µM (inactive) | 5.71 µM (inactive) | 3.9 µM (inactive) | 4.17 µM (inactive) | 11.6 µM (inactive) | 10 µM (inactive) | 15.2 µM (inactive) | 12.5 µM (inactive) | 6.46 µM (inactive) | 2.65 | 2.52 µM (inactive) |  |
| O=c1[nH]c(=O)n(C2CC(O)C(CO)O2)cc1OCC1CCCCC1 (stereo not given) |  | > 100 µM (inactive) | > 100 µM (inactive) | > 100 µM (inactive) |  | > 100 µM (inactive) | > 100 µM (inactive) |  | > 100 µM (inactive) | > 100 µM (inactive) | > 100 µM (inactive) | > 100 µM (inactive) | > 100 µM (inactive) | > 100 µM (inactive) | > 100 µM (inactive) | > 100 µM (inactive) | > 100 | > 100 µM (inactive) | > 100 µM (inactive) |
| CCCCCCOc1ccc(NC2=C(Cl)C(=O)c3ncccc3C2=O)cc1 | 1.83 µM (inactive) | 1.92 µM (inactive) |  | 2.1 µM (inactive) |  | 1.39 µM (inactive) | 1.64 µM (inactive) | > 10 µM (inactive) | 1.9 µM (inactive) | 1.61 µM (inactive) | 2.24 µM (inactive) | 1.97 µM (inactive) | 2.49 µM (inactive) | 1.97 µM (inactive) | 1.51 µM (inactive) | 1.67 µM (inactive) | 2.02 | 2.77 µM (inactive) | 5.61 µM (inactive) |
| CC1=C2C3=C(C)C(=O)C(C)(C)CC[C@@]3(C)[C@]2(C)CCC(C)(C)C1=O | > 100 µM (inactive) | > 100 µM (inactive) | > 100 µM (inactive) | > 100 µM (inactive) |  | > 100 µM (inactive) |  | > 100 µM (inactive) | > 100 µM (inactive) | > 100 µM (inactive) | > 100 µM (inactive) | > 100 µM (inactive) | > 100 µM (inactive) | > 100 µM (inactive) | > 100 µM (inactive) | > 100 µM (inactive) | > 100 | > 100 µM (inactive) | > 100 µM (inactive) |
| O=C(NNC(=O)c1ccc(Cl)cc1NC(=O)C12CC3CC(CC(C3)C1)C2)c1ccc(Cl)cc1 | 32.1 µM (inactive) | 19.8 µM (inactive) | 24.4 µM (inactive) | 19.5 µM (inactive) |  | 17.1 µM (inactive) |  |  | 25.8 µM (inactive) | 20.2 µM (inactive) | 30.1 µM (inactive) | 29.9 µM (inactive) | 19.5 µM (inactive) | 39.7 µM (inactive) | 26.8 µM (inactive) | 27.7 µM (inactive) | 17.5 | 15 µM (inactive) | 22.7 µM (inactive) |
| CNC1c2ccccc2C(=O)c2cc3c(cc21)OCCOCCOCCOCCO3 (stereo not given) | 81.3 µM (inactive) | > 100 µM (inactive) |  |  |  | > 100 µM (inactive) | > 100 µM (inactive) |  | > 100 µM (inactive) | > 100 µM (inactive) | 28.1 µM (inactive) | > 100 µM (inactive) | > 100 µM (inactive) |  | > 100 µM (inactive) | 99.1 µM (inactive) | 39.9 | > 100 µM (inactive) |  |
| Cc1nn(C(=O)c2ccncc2)c2c1C(c1ccccc1[N+](=O)[O-])SC(=N)N2 (stereo not given) | > 10 µM (inactive) | > 10 µM (inactive) | > 10 µM (inactive) | > 10 µM (inactive) | > 10 µM (inactive) |  | > 10 µM (inactive) |  | > 10 µM (inactive) |  | > 10 µM (inactive) | > 10 µM (inactive) | > 10 µM (inactive) | > 10 µM (inactive) | > 10 µM (inactive) | > 10 µM (inactive) | > 10 | > 10 µM (inactive) | > 10 µM (inactive) |
| O=C(/C=N/O)c1c(-c2ccccc2)[nH]c(-c2ccccc2)c1-c1ccccc1 | 19.8 µM (inactive) | 44.4 µM (inactive) | 22.1 µM (inactive) | 13.1 µM (inactive) | 11.1 µM (inactive) | 14.3 µM (inactive) | 17.8 µM (inactive) | 29.2 µM (inactive) | 16.2 µM (inactive) | 14.5 µM (inactive) | 2.37 µM (inactive) | 19.3 µM (inactive) | 14.1 µM (inactive) | 7.46 µM (inactive) |  | 15.8 µM (inactive) | 17.9 | 13.8 µM (inactive) | 26.2 µM (inactive) |
| O=C(O)C1CCCCN1C(=O)Cc1c[nH]c2ccccc12 (stereo not given) | > 100 µM (inactive) | > 100 µM (inactive) | > 100 µM (inactive) | > 100 µM (inactive) | > 100 µM (inactive) |  | > 100 µM (inactive) |  | > 100 µM (inactive) | > 100 µM (inactive) | > 100 µM (inactive) | > 100 µM (inactive) | > 100 µM (inactive) | > 100 µM (inactive) | > 100 µM (inactive) | > 100 µM (inactive) | > 100 | > 100 µM (inactive) | > 100 µM (inactive) |
| COc1cc(/C=C/C(=O)OC[C@]23O[C@H]2[C@@H](OC2OC(C)C(O)C(O)C2O)C2C=CO[C@@H](OC4OC(CO)C(O)C(O)C4O)C23)ccc1O (stereo not given in full) | > 100 µM (inactive) | > 100 µM (inactive) |  | > 100 µM (inactive) | > 100 µM (inactive) | > 100 µM (inactive) | > 100 µM (inactive) |  |  | > 100 µM (inactive) | > 100 µM (inactive) | > 100 µM (inactive) | > 100 µM (inactive) | > 100 µM (inactive) | > 100 µM (inactive) | > 100 µM (inactive) | > 100 | > 100 µM (inactive) | > 100 µM (inactive) |
| CN1C(=O)c2cccc3cc([N+](=O)[O-])cc(c23)C1=O | > 10 µM (inactive) | > 10 µM (inactive) | > 10 µM (inactive) | > 10 µM (inactive) |  |  | > 10 µM (inactive) |  | > 10 µM (inactive) | > 10 µM (inactive) | 5.04 µM (inactive) | 9.25 µM (inactive) | > 10 µM (inactive) | 9.08 µM (inactive) | > 10 µM (inactive) | > 10 µM (inactive) | > 10 | > 10 µM (inactive) |  |
| Cc1ccc(Nc2nc3ccccc3nc2NS(=O)(=O)c2ccc(N)cc2)cc1 | 20.4 µM (inactive) | > 100 µM (inactive) | 59.2 µM (inactive) | 65 µM (inactive) | 29.4 µM (inactive) | 21.5 µM (inactive) | 33.4 µM (inactive) |  | > 100 µM (inactive) | 30.2 µM (inactive) | 15.6 µM (inactive) | 89.7 µM (inactive) | 34.5 µM (inactive) | 3.2 µM (inactive) | 41.8 µM (inactive) | 48.3 µM (inactive) | 49.8 | 56.8 µM (inactive) | 78.7 µM (inactive) |
| Oc1[nH]c(Nc2cc(Cl)cc(Cl)c2)nc2ncnc1-2 | > 75 µM (inactive) | > 75 µM (inactive) | > 75 µM (inactive) | > 75 µM (inactive) | > 75 µM (inactive) | > 75 µM (inactive) |  |  | > 75 µM (inactive) | > 75 µM (inactive) | > 75 µM (inactive) | > 75 µM (inactive) | > 75 µM (inactive) | > 75 µM (inactive) | > 75 µM (inactive) | > 75 µM (inactive) | > 75 | > 75 µM (inactive) | > 75 µM (inactive) |
